Measured values reported in patent US4746659A, “Diastereomers of 10-alkyl-10-deazaminopterins and process for preparing the same” (priority 1985, dated 1988).
Converted amounts (≈) assume the structure as drawn. “Also recorded” adds a separate entry of the source. Like-named read-outs stand apart in the source and are kept apart here.

Legend:
Streptococcus faecium [1] = assay: Growth inhibition of Streptococcus faecium (ATCC 8043); type: cell-based; conditions: for Minimum Inhibitory Concentration50 for growth inhibition, S. faecium: S. faecium ATCC 8043; for Minimum Inhibitory Concentration50 for growth inhibition, S. faecium / IC50: folate concentration = 1 ng/mL; for potency against S. faecium, comparison: comparison in words; for IC50: Enterococcus faecium, ATCC8043, read-out: Minimum Inhibitory Concentration50 for growth inhibition, S. faecium, S. faecium ATCC 8043
[2] = molecular target: T1, transport protein of L1210 (Mus musculus, UniProt P41438); assay: Transport (influx, efflux) in L1210 cells; type: cell-based; conditions: average of 3-6 runs, standard error less than 15%
T1 sequence (P41438 1-512): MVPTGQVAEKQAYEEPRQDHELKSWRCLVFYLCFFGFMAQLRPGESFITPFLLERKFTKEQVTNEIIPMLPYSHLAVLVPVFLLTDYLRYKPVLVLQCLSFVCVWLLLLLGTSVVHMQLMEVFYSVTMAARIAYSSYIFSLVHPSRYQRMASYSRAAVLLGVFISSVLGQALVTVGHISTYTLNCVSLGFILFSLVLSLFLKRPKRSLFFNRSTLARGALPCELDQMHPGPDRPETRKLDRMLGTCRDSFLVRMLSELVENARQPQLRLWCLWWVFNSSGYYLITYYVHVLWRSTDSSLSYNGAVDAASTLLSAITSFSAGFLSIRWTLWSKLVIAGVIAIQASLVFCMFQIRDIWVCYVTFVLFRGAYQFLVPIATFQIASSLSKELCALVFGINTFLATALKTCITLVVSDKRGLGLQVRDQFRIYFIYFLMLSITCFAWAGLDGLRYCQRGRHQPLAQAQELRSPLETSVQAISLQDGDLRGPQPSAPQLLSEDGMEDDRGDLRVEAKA

[3] = molecular target: T2, dihydrofolate reductase derived from L1210 (Mus musculus, UniProt P00375); assay: Inhibition of dihydrofolate reductase derived from L1210 cells; type: biochemical; conditions: comparison in words
T2 construct: dihydrofolate reductase derived from L1210; endogenous in cells; host or cells: L1210 cells
T2 sequence (P00375 1-187): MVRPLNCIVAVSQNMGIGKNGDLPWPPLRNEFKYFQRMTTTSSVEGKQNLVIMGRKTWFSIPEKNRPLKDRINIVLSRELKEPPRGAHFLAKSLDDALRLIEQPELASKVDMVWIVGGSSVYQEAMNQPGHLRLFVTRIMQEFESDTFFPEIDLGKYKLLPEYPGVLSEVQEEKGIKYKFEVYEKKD

L1210 cells = assay: Growth inhibition of L1210 cells; type: cell-based; conditions: for IC50: average of 3-6 runs, standard error less than 15%, read-out: growth inhibn (minimum inhibitory concentration50); for inhibition of growth for L1210 cells, comparison between isomers: comparison in words
L1210 leukemia = assay: Antitumor activity against L1210 leukemia in mice; type: in vivo, BD (2) F1 female mice; conditions: sc every 2 days times 5; for Mean Survival Time: untreated control 6.6 days
[4] = system: human mammary, lung and colon tumor xenografts; conditions: lung and colon tumor xenografts in nude mice; cited from earlier work
[5] = Various in vitro assays (general statement); conditions: Tables I, II and III
[6] = system: experimental murine tumor models; conditions: compared with methotrexate or 10-deazaminopterin; cited from earlier work
Streptococcus faecium [7] = conditions: cited from earlier work
[8] = system: leukemia, as well as other malignancies, including ascitic tumors; conditions: warm-blooded lower animals; cited from earlier work
[9] = molecular target: dihydrofolate reductase derived from L. casei (Lacticaseibacillus casei, UniProt P00381); assay: DHFR inhibition, enzyme derived from L. casei; type: biochemical; conditions: relative to l,L-isomer
[10] = Mus musculus, L1210, L1210 cells
[11] = 9 mg/kg, listed as racemic mixture
[12] = 12 mg/kg, listed as racemic mixture
[13] = 18 mg/kg, listed as racemic mixture
[14] = 24 mg/kg, listed as racemic mixture

Chain of dihydrofolate reductase derived from L. casei (P00381 whole entry): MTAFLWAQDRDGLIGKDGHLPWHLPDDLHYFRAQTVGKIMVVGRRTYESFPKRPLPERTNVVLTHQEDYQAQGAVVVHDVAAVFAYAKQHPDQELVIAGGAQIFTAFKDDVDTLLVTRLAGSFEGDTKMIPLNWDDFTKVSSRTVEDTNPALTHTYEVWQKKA

CCC(CC1CNc2nc(N)nc(N)c2N1)c1ccc(C(=O)N[C@@H](CCC(=O)O)C(=O)O)cc1 (mixture of isomers) [5,6,7,8-tetrahydro racemic mixture]
Minimum Inhibitory Concentration50 for growth inhibition, S. faecium (Streptococcus faecium [1]): 2.6 ng/mL

CCC(CC1CNc2nc(N)nc(N)c2N1)c1ccc(C(=O)N[C@@H](CCC(=O)O)C(=O)O)cc1 (stereo partly drawn) [5,6,7,8-tetrahydro d, L]
Minimum Inhibitory Concentration50 for growth inhibition, S. faecium (Streptococcus faecium [1]): 2.5 ng/mL
potency against S. faecium, comparison (Streptococcus faecium [1]): slightly more potent than the l,L isomer

CC(Cc1cnc2nc(N)nc(N)c2n1)c1ccc(C(=O)N[C@@H](CCC(=O)O)C(=O)O)cc1 (single isomer, unassigned) [l, L-10-methyl, 10-methyl-10-deazaminopterin]
transport efflux k [2]: 0.267 min⁻¹
inhibition of dihydrofolate reductase derived from L1210, comparison between isomers [3]: not significantly different from one another or MTX
IC50 (L1210 cells; [10]): 1.18 nM
inhibition of growth for L1210 cells, comparison between isomers (L1210 cells): not a significant difference

CCC(Cc1cnc2nc(N)nc(N)c2n1)c1ccc(C(=O)N[C@@H](CCC(=O)O)C(=O)O)cc1 (single isomer, unassigned) [l, L-10-ethyl, l,L-10-ethyl-10-deazaminopterin]
potency against S. faecium, comparison (Streptococcus faecium [1]): slightly more potent than the d,L-isomer
transport efflux k [2]: 0.249 min⁻¹
IC50 (L1210 cells; [10]): 1.52 nM
inhibition of growth for L1210 cells, comparison between isomers (L1210 cells): only one-third as potent as the d,L isomer

CC(Cc1cnc2nc(N)nc(N)c2n1)c1ccc(C(=O)N[C@@H](CCC(=O)O)C(=O)O)cc1 (single isomer, unassigned) [d, L-10-methyl, 10-methyl-10-deazaminopterin]
transport efflux k [2]: 0.258 min⁻¹
inhibition of dihydrofolate reductase derived from L1210, comparison between isomers [3]: not significantly different from one another or MTX
IC50 (L1210 cells; L1210 cells): 0.68 nM
inhibition of growth for L1210 cells, comparison between isomers (L1210 cells): not a significant difference

CCC(Cc1cnc2nc(N)nc(N)c2n1)c1ccc(C(=O)N[C@@H](CCC(=O)O)C(=O)O)cc1 (stereo partly drawn) [10-ethyl-10-deazaminopterin]
30-day survivors (L1210 leukemia; [11]): 0/10
Increased Life Span (L1210 leukemia; [11]): +135%
Toxic deaths (L1210 leukemia; [11]): 0/10
Mean Survival Time (L1210 leukemia; [11]): 15.5 ± 0.6 days
30-day survivors (L1210 leukemia; [12]): 0/10
Increased Life Span (L1210 leukemia; [12]): +153%
Toxic deaths (L1210 leukemia; [12]): 0/10
Mean Survival Time (L1210 leukemia; [12]): 16.7 ± 0.7 days
30-day survivors (L1210 leukemia; [13]): 0/10
Increased Life Span (L1210 leukemia; [13]): +193%
Toxic deaths (L1210 leukemia; [13]): 0/10
Mean Survival Time (L1210 leukemia; [13]): 19.3 ± 0.8 days
30-day survivors (L1210 leukemia; [14]): 2/10
Increased Life Span (L1210 leukemia; [14]): > +207%
Toxic deaths (L1210 leukemia; [14]): 2/10
Mean Survival Time (L1210 leukemia; [14]): 20.3 ± 1.9 days
30-day survivors (L1210 leukemia; 32 mg/kg): 0/10
Increased Life Span (L1210 leukemia; 32 mg/kg): +67%
Toxic deaths (L1210 leukemia; 32 mg/kg): 10/10
Mean Survival Time (L1210 leukemia; 32 mg/kg): 16.0 ± 1.1 days
regression of human tumor xenografts [4]: frank regressions
inhibitory activity in the various in vitro assays, comparison [5]: intermediate between the values for the resolved d,L and l,L diasteromers
effectiveness in experimental murine tumor models [6]: considerably more effective than methotrexate or 10-deazaminopterin

Nc1nc2ncc(CCc3ccc(C(=O)O)cc3)nc2c(=O)[nH]1 [10-deazapteroic acid]
growth-inhibitory activity against Streptococcus faecium (Streptococcus faecium [7]): potent growth-inhibitory activity

CCC(CC1CNc2nc(N)nc(N)c2N1)c1ccc(C(=O)N[C@@H](CCC(=O)O)C(=O)O)cc1 (stereo partly drawn) [5,6,7,8-tetrahydro l, L]
IC50 (Streptococcus faecium [1]): 3.1 ng/mL (≈ 6.57 nM)

CCC(CC1=Nc2c(N)nc(N)nc2NC1)c1ccc(C(=O)N[C@@H](CCC(=O)O)C(=O)O)cc1 (stereo partly drawn) [7,8-dihydro l, L]
IC50 (Streptococcus faecium [1]): 1.1 ng/mL (≈ 2.34 nM)

Nc1nc(N)c2nc(CCc3ccc(C(=O)NC(CCC(=O)O)C(=O)O)cc3)cnc2n1 (stereo not drawn) [10-deazaminopterin]
amelioration of leukemia and other malignancies, including ascitic tumors [8]: can be ameliorated

CN(Cc1cnc2nc(N)nc(N)c2n1)c1ccc(C(=O)N[C@@H](CCC(=O)O)C(=O)O)cc1 [methotrexate, reference compound]
transport efflux k [2]: 0.213 min⁻¹
30-day survivors (L1210 leukemia; 9 mg/kg): 0/10
Increased Life Span (L1210 leukemia; 9 mg/kg): +137%
Toxic deaths (L1210 leukemia; 9 mg/kg): 0/10
Mean Survival Time (L1210 leukemia; 9 mg/kg): 15.7 ± 0.4 days
30-day survivors (L1210 leukemia; 12 mg/kg): 0/10
Toxic deaths (L1210 leukemia; 12 mg/kg): 1/10
Mean Survival Time (L1210 leukemia; 12 mg/kg): 16.3 ± 0.7 days
30-day survivors (L1210 leukemia; 18 mg/kg): 0/10
Increased Life Span (L1210 leukemia; 18 mg/kg): +119%
Toxic deaths (L1210 leukemia; 18 mg/kg): 6/10
Mean Survival Time (L1210 leukemia; 18 mg/kg): 14.5 ± 1.6 days
30-day survivors (L1210 leukemia; 24 mg/kg): 0/10
Increased Life Span (L1210 leukemia; 24 mg/kg): +46%
Toxic deaths (L1210 leukemia; 24 mg/kg): 10/10
Mean Survival Time (L1210 leukemia; 24 mg/kg): 9.6 ± 1.1 days
IC50 (L1210 cells; L1210 cells): 2.48 nM

CCC(Cc1cnc2nc(N)nc(N)c2n1)c1ccc(C(=O)N[C@@H](CCC(=O)O)C(=O)O)cc1 (stereo partly drawn) [d, L-10-ethyl, d,L-10-ethyl-10-deazaminopterin]
transport efflux k [2]: 0.253 min⁻¹
inhibition of dihydrofolate reductase derived from L1210, comparison between isomers ([3]; listed as d,L isomer of 10-ethyl-10-deazaminopterin): significantly more effective; also recorded: three-fold difference between l,L and d,L isomers
30-day survivors (L1210 leukemia; 9 mg/kg, listed as d, L): 0/6
Increased Life Span (L1210 leukemia; 9 mg/kg, listed as d, L): +177%
Toxic deaths (L1210 leukemia; 9 mg/kg, listed as d, L): 0/6
Mean Survival Time (L1210 leukemia; 9 mg/kg, listed as d, L): 18.3 ± 1.7 days
30-day survivors (L1210 leukemia; 12 mg/kg, listed as d, L): 0/9
Increased Life Span (L1210 leukemia; 12 mg/kg, listed as d, L): +199%
Toxic deaths (L1210 leukemia; 12 mg/kg, listed as d, L): 3/9
Mean Survival Time (L1210 leukemia; 12 mg/kg, listed as d, L): 19.8 ± 2.3 days
30-day survivors (L1210 leukemia; 18 mg/kg, listed as d, L): 1/9
Increased Life Span (L1210 leukemia; 18 mg/kg, listed as d, L): > +165%
Toxic deaths (L1210 leukemia; 18 mg/kg, listed as d, L): 5/9
Mean Survival Time (L1210 leukemia; 18 mg/kg, listed as d, L): 17.5 ± 1.5 days
30-day survivors (L1210 leukemia; 24 mg/kg, listed as d, L): 0/3
Increased Life Span (L1210 leukemia; 24 mg/kg, listed as d, L): +55%
Toxic deaths (L1210 leukemia; 24 mg/kg, listed as d, L): 3/3
Mean Survival Time (L1210 leukemia; 24 mg/kg, listed as d, L): 10.0 ± 0 days
potency against the L. casei enzyme, d,L-isomer over l,L-isomer [9]: approximately three-fold greater potency
IC50 (L1210 cells; [10]): 0.43 nM
inhibition of growth for L1210 cells, comparison between isomers (L1210 cells): significantly more effective

Nc1nc2c(c(=O)[nH]1)NC(CCc1ccc(C(=O)O)cc1)CN2 (stereo not drawn)
growth-inhibitory activity against Streptococcus faecium (Streptococcus faecium [7]): Activity was greatly enhanced by reduction to the tetrahydro compound
